Reference: PMC5928880 (Theranostics, 2018)
Values joined by “and” are separate entries in the source; they are usually repeats but may differ in a detail not shown here. Equal entries are not always repeated. Where two headings read alike, the source gives them in different places.

How the values were obtained:
Jurkat leukemia cells = test: Antiproliferation assay; type: cell-based, human; conditions: for inhibition at 50 µM / EC50: Jurkat; for inhibition at 50 µM: read-out: % inhibition at 50 µM, Jurkat; for EC50: read-out: Antiproliferative activity EC50, Jurkat; for Effect on growth of Jurkat cells: at 50 µM
[1] = system: MCF-7 (breast cancer) cells; test: Antiproliferation assay; type: cell-based, human
[2] = system: normal fibroblast WI-38 cells; test: Antiproliferation assay; type: cell-based, human
NB4 cells = test: Antiproliferation assay; type: cell-based, human
MV4-11 cells = test: Antiproliferation assay; type: cell-based, human
SKNO-1 cells = test: Antiproliferation assay; type: cell-based, human
[3] = system: murine c-kit+ hematopoietic stem/progenitor cells (HSPC); test: Colony-forming assay with hematopoietic stem/progenitor cells; type: cell-based, mouse; conditions: even at 250 nM
[4] = system: Kasumi-1 and SKNO-1 cells; test: Antiproliferation assay, R-E leukemia cells; type: cell-based, human; conditions: more active than Dex
[5] = ref [44], [45]; cited from earlier work
Kasumi-1 cells [6] = test: Antiproliferation assay; type: cell-based, human; conditions: read-out: Antiproliferative activity EC50, Kasumi-1
SKNO-1 leukemia [7] = test: Subcutaneous xenograft mouse model of SKNO-1 leukemia; type: in vivo; conditions: i.p. 10 and 20 mg/kg/day, 10 injections in 14 days, NOD-SCID mice
[8] = i.p. 100 mg/kg/day, 10 injections over 14 days
Kasumi-1 cells [9] = test: Combination treatment of Kasumi-1 cells, combination index; type: cell-based, human; conditions: Dex in combination with cytarabine, CI < 1 synergism, listed as Dex
SKNO-1 leukemia [10] = conditions: 15 mg/kg/day i.p. injection for 4 days, ref [37], cited from earlier work
myeloid leukemia cells = conditions: short course (3-7 days), high doses (20-30 mg/kg/day); ref [54]; cited from earlier work
[11] = Homo sapiens, MCF7, read-out: Antiproliferative activity EC50, MCF-7
[12] = Homo sapiens, WI-38, read-out: Antiproliferative activity EC50, WI-38
[13] = Homo sapiens, NB-4, read-out: Antiproliferative activity EC50, NB4
[14] = Homo sapiens, MV4-11, read-out: Antiproliferative activity EC50, MV4-11
[15] = Homo sapiens, SKNO-1, read-out: Antiproliferative activity EC50, SKNO-1

CC=CC(=O)N(CC)c1ccccc1C (mixture of isomers) [Crotamiton, crotamiton]
inhibition at 50 µM (Jurkat leukemia cells; Homo sapiens): 11.2% | EC50 (Jurkat leukemia cells; Homo sapiens): > 50 µM

CC(=O)c1ccc2c(c1)N(CCCN(C)C)c1ccccc1S2 [Acepromazine, acepromazine]
inhibition at 50 µM (Jurkat leukemia cells; Homo sapiens): 21% | EC50 (Jurkat leukemia cells; Homo sapiens): > 50 µM

CO[C@H]1/C=C\C=C(/C)C(=O)NC2=CC(=O)C(NCCN(C)C)=C(C[C@@H](C)C[C@H](OC)[C@H](O)[C@@H](C)/C=C(\C)[C@@H]1OC(N)=O)C2=O [Alvespimycin, alvespimycin]
EC50 (Jurkat leukemia cells; Homo sapiens): 1.6 µM | EC50 [1, 11]: 5.2 µM | EC50 [2, 12]: 27 µM | EC50 (NB4 cells; [13]): 0.055 µM | EC50 (MV4-11 cells; [14]): 0.09 µM

C[C@H]1C[C@H]2[C@@H]3CCC4=CC(=O)C=C[C@]4(C)[C@@]3(F)[C@@H](O)C[C@]2(C)[C@@]1(O)C(=O)CO [Betamethasone, betamethasone]
inhibition at 50 µM (Jurkat leukemia cells; Homo sapiens): 6.9% | EC50 (Jurkat leukemia cells; Homo sapiens): > 50 µM | Effect on growth of Jurkat cells (Jurkat leukemia cells): did not affect growth | EC50 [1, 11]: > 50 µM | EC50 [2, 12]: > 50 µM | EC50 (NB4 cells; [13]): > 50 µM | EC50 (MV4-11 cells; [14]): > 50 µM | EC50 (SKNO-1 cells; [15]): 0.059 µM | Effect on colony-forming ability of murine HSPC [3]: did not significantly affect

CN(C)/N=N/c1[nH]cnc1C(N)=O [Dacarbazine, dacarbazine]
EC50 (Jurkat leukemia cells; Homo sapiens): 15.2 µM

C[C@@H]1C[C@H]2[C@@H]3CCC4=CC(=O)C=C[C@]4(C)[C@@]3(F)[C@@H](O)C[C@]2(C)[C@@]1(O)C(=O)COP(=O)(O)O [Dex-P, dexamethasone-21-phosphate]
EC50 (Jurkat leukemia cells): > 50 µM | Activity compared to parent compound Dex (fold more active) [4]: ~ 2 fold | EC50 ([1]; read-out: Antiproliferative activity EC50, MCF-7, MCF-7): > 50 µM | t1/2 in humans [5]: 4.7 h | EC50 ([2]; read-out: Antiproliferative activity EC50, WI-38, WI-38): > 50 µM | EC50 (NB4 cells; read-out: Antiproliferative activity EC50, NB4, NB4): > 50 µM | EC50 (Kasumi-1 cells [6]): 0.009 µM | Survival in SKNO-1 xenograft (SKNO-1 leukemia [7]): prolonged survivals | Tumor growth in SKNO-1 xenograft (SKNO-1 leukemia [7]): significant tumor growth inhibition | EC50 (MV4-11 cells; read-out: Antiproliferative activity EC50, MV4-11, MV4-11): > 50 µM | EC50 (SKNO-1 cells; read-out: Antiproliferative activity EC50, SKNO-1, SKNO-1): 0.017 µM | Toxicity to mice [8]: without overt toxicities | Effect on colony-forming ability of murine HSPC [3]: did not significantly affect

C[C@@H]1C[C@H]2[C@@H]3CCC4=CC(=O)C=C[C@]4(C)[C@@]3(F)[C@@H](O)C[C@]2(C)[C@@]1(O)C(=O)CO [Dexamethasone, dexamethasone]
EC50 (Jurkat leukemia cells; Homo sapiens): > 50 µM | EC50 [1, 11]: > 50 µM | Combination index (CI) (Kasumi-1 cells [9]): 0.13-0.75 and 0.13 to 0.75 | EC50 [2, 12]: > 50 µM | EC50 (NB4 cells; [13]): > 50 µM | EC50 (MV4-11 cells; [14]): > 50 µM | EC50 (SKNO-1 cells; [15]): 0.029 µM | In vivo activity (tumor burden) in mouse model of SKNO-1 leukemia (SKNO-1 leukemia [10]): did not reduce in vivo tumor burden | In vivo activity (tumor burden) in mouse model of SKNO-1 leukemia (SKNO-1 leukemia [10]; listed as Dex): no in vivo activity

Cc1c(Nc2ncccc2C(=O)O)cccc1C(F)(F)F [Fluninxin]
Effect on growth of Jurkat cells (Jurkat leukemia cells): inactive | EC50 (Jurkat leukemia cells): ~50 µM | EC50 (Kasumi-1 cells [6]): 14.7 µM

C[C@]12CCC(=O)C=C1CC[C@@H]1[C@@H]2[C@@H](O)C[C@@]2(C)[C@H]1CC[C@]2(O)C(=O)CO [Hydrocortisone, hydrocortisone]
EC50 (Jurkat leukemia cells; Homo sapiens): > 50 µM | EC50 (SKNO-1 cells; [15]): 0.41 µM

COc1ccc2cc(CCC(C)=O)ccc2c1 [Nabumetone]
inhibition at 50 µM (Jurkat leukemia cells; Homo sapiens): -3.5% | EC50 (Jurkat leukemia cells; Homo sapiens): > 50 µM | Effect on growth of Jurkat cells (Jurkat leukemia cells): inactive | EC50 (Kasumi-1 cells [6]): 18.5 µM

C[C@]12C=CC(=O)C=C1CC[C@@H]1[C@@H]2[C@@H](O)C[C@@]2(C)[C@H]1CC[C@]2(O)C(=O)CO [Prednisolone, prednisolone]
EC50 (Jurkat leukemia cells; Homo sapiens): > 50 µM | EC50 (SKNO-1 cells; [15]): 0.15 µM

CCCNCC(O)COc1ccccc1C(=O)CCc1ccccc1 (centres unmarked) [Propafenone, propafenone]
inhibition at 50 µM (Jurkat leukemia cells; Homo sapiens): 2.5% | EC50 (Jurkat leukemia cells; Homo sapiens): > 50 µM

COc1cc2ccc(=O)oc2cc1O [Scopoletin, scopoletin]
inhibition at 50 µM (Jurkat leukemia cells; Homo sapiens): 29.4% | EC50 (Jurkat leukemia cells; Homo sapiens): > 50 µM

C=CCNC1=C2C[C@@H](C)C[C@H](OC)[C@H](O)[C@@H](C)/C=C(\C)[C@H](OC(N)=O)[C@@H](OC)/C=C\C=C(/C)C(=O)NC(=CC1=O)C2=O [Tanespimycin, tanespimycin]
EC50 (Jurkat leukemia cells; Homo sapiens): ~50 µM | EC50 [1, 11]: > 50 µM | EC50 [2, 12]: > 50 µM | EC50 (NB4 cells; [13]): 0.42 µM | EC50 (MV4-11 cells; [14]): 0.52 µM

C[C@H]1C[C@@H]2[C@H]([C@@H](O)C[C@@]3(C)[C@H]2CC[C@]3(O)C(=O)CO)[C@@]2(C)C=CC(=O)C=C12 [methylprednisolone]
Differentiation of myeloid leukemia cells in children with AML (myeloid leukemia cells): induce differentiation of myeloid leukemia cells
